Columns and labels:
Paclitaxel = compound: CC(=O)O[C@H]1C(=O)[C@@]2(C)[C@H]([C@H](OC(=O)c3ccccc3)[C@]3(O)C[C@H](OC(=O)[C@H](O)[C@@H](NC(=O)c4ccccc4)c4ccccc4)C(C)=C1C3(C)C)[C@]1(OC(C)=O)CO[C@@H]1C[C@@H]2O [Paclitaxel]
BSJ-03-123 [1] = compound: T1, CC(=O)c1c(C)c2cnc(Nc3ccc(N4CCN(CCOCCOCCOCCNC(=O)COc5cccc6c5C(=O)N(C5CCC(=O)NC5=O)C6=O)CC4)cn3)nc2n(C2CCCC2)c1=O [BSJ-03-123]
Flavopiridol [2] = compound: T2, CN1CC[C@H](c2c(O)cc(O)c3c(=O)cc(-c4ccccc4Cl)oc23)[C@H](O)C1 [Flavopiridol]
BVD523 = compound: CC(C)Nc1cc(-c2c[nH]c(C(=O)N[C@H](CO)c3cccc(Cl)c3)c2)c(Cl)cn1 [BVD523]
R0-3306 = compound: C1=CC2=C(C=CC(=C2)C=C3C(=O)NC(=NCC4=CC=CS4)S3)N=C1 [R0-3306]
[3] = compound: CO[C@@H](C)Cn1c(=O)n(C)c2cnc3ccc(-c4cncc(C(C)(C)O)c4)cc3c21
Neratinib/HKI272 = compound: CCOc1cc2ncc(C#N)c(Nc3ccc(OCc4ccccn4)c(Cl)c3)c2cc1NC(=O)/C=C/CN(C)C [Neratinib/HKI272]
[4] = compound: CCC1=CN=CN=C1N2CCN(CC2)CC3=NC4=C(N3)C=C(C=C4)C(F)(F)F
AZD5363 = compound: NC1(C(=O)N[C@@H](CCO)c2ccc(Cl)cc2)CCN(c2nc[nH]c3nccc2-3)CC1 [AZD5363]
YKL-5-124 = compound: C=CC(=O)Nc1ccc(C(=O)Nc2[nH]nc3c2CN(C(=O)N[C@H](CN(C)C)c2ccccc2)C3(C)C)cc1 [YKL-5-124]; test: GR value, 72 h; higher = faster growth (1 = untreated, <0 = killing);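 further: breast cancer and non-malignant breast epithelial lines, nine half-log doses, viable cells counted by Hoechst and LIVE/DEAD dye imaging versus time-zero plates and DMSO controls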
BSJ-03-123 [5] = compound: T1, BSJ-03-123; test: as above
THZ1 = compound: CN(C)C/C=C/C(=O)Nc1ccc(C(=O)Nc2cccc(Nc3ncc(Cl)c(-c4c[nH]c5ccccc45)n3)c2)cc1 [THZ1]; test: as above
Flavopiridol [6] = compound: T2, Flavopiridol; test: as above
[7] = compound: CCc1cnn2c(NCc3ccc[n+]([O-])c3)cc(N3CCCC[C@H]3CCO)nc12; test: as above
LEE011/Ribociclib = compound: CN(C)C(=O)c1cc2cnc(Nc3ccc(N4CCNCC4)cn3)nc2n1C1CCCC1 [LEE011/Ribociclib]; test: as above
THZ531 = compound: CN(C)C/C=C/C(=O)Nc1ccc(C(=O)N2CCC[C@@H](Nc3ncc(Cl)c(-c4c[nH]c5ccccc45)n3)C2)cc1 [THZ531]; test: as above
[8] = compound: CCN1CCN(Cc2ccc(Nc3ncc(F)c(-c4cc(F)c5nc(C)n(C(C)C)c5c4)n3)nc2)CC1; test: as above
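Wherever GR50, 72 h is given: breast cancer and non-malignant breast epithelial cell lines, Deep Dye Drop or Dye Drop imaging, nine half-log doses, GR normalized to time-zero plates and DMSO-only controls.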

HCC1395 was tested, and the “GR50, 72 h” value (Paclitaxel) was 0.00388 µM, the “GR50, 72 h” value (BSJ-03-123 [1]) was 1.12 µM and the “GR50, 72 h” value (Flavopiridol [2]) was 0.126 µM. The “GR50, 72 h” value (BVD523) was 1.72 µM, the “GR50, 72 h” value (R0-3306) was 0.463 µM and the “GR50, 72 h” value [3] was 0.00497 µM. For the same cell line, the “GR50, 72 h” value (Neratinib/HKI272) was 0.958 µM, the “GR50, 72 h” value [4] was greater than 10 µM and the “GR50, 72 h” value (AZD5363) was 0.135 µM. The GR value (YKL-5-124; 0.001 µM) was 0.63 GR, the GR value (YKL-5-124; 0.003162 µM) was 0.375 GR and the GR value (YKL-5-124; 0.01 µM) was 0.275 GR. The GR value (YKL-5-124; 0.03162 µM) was 0.158 GR, the GR value (YKL-5-124; 0.1 µM) was 0.0856 GR and the GR value (YKL-5-124; 0.3162 µM) was 0.0979 GR. For the same cell line, the GR value (YKL-5-124; 1 µM) was 0.0594 GR, the GR value (YKL-5-124; 3.162 µM) was -0.0428 GR and the GR value (YKL-5-124; 10 µM) was -0.311 GR. It also gave a GR value (BSJ-03-123 [5]; 0.001 µM) of 0.847 GR, a GR value (BSJ-03-123 [5]; 0.003162 µM) of 0.925 GR and a GR value (BSJ-03-123 [5]; 0.01 µM) of 0.769 GR. The GR value (BSJ-03-123 [5]; 0.03162 µM) was 0.767 GR, the GR value (BSJ-03-123 [5]; 0.1 µM) was 0.774 GR and the GR value (BSJ-03-123 [5]; 0.3162 µM) was 0.692 GR. For the same cell line, the GR value (BSJ-03-123 [5]; 1 µM) was 0.572 GR, the GR value (BSJ-03-123 [5]; 3.162 µM) was 0.534 GR and the GR value (BSJ-03-123 [5]; 10 µM) was -0.188 GR. It also gave a GR value (THZ1; 0.0001 µM) of 1 GR, a GR value (THZ1; 0.0003162 µM) of 1.01 GR and a GR value (THZ1; 0.001 µM) of 0.982 GR. For the same cell line, the GR value (THZ1; 0.003162 µM) was 0.985 GR, the GR value (THZ1; 0.01 µM) was 1.04 GR and the GR value (THZ1; 0.03162 µM) was 0.241 GR. For the same cell line, the GR value (THZ1; 0.1 µM) was -0.42 GR, the GR value (THZ1; 0.3162 µM) was -0.546 GR and the GR value (THZ1; 1 µM) was -0.795 GR. For the same cell line, the GR value (Flavopiridol [6]; 0.0001 µM) was 1.02 GR, the GR value (Flavopiridol [6]; 0.0003162 µM) was 0.885 GR and the GR value (Flavopiridol [6]; 0.001 µM) was 0.933 GR. For the same cell line, the GR value (Flavopiridol [6]; 0.003162 µM) was 0.826 GR, the GR value (Flavopiridol [6]; 0.01 µM) was 0.75 GR and the GR value (Flavopiridol [6]; 0.03162 µM) was 0.973 GR. For the same cell line, the GR value (Flavopiridol [6]; 0.1 µM) was 0.683 GR, the GR value (Flavopiridol [6]; 0.3162 µM) was -0.0127 GR and the GR value (Flavopiridol [6]; 1 µM) was -0.672 GR. For the same cell line, the GR value ([7]; 0.0001 µM) was 1.09 GR, the GR value ([7]; 0.0003162 µM) was 1.1 GR and the GR value ([7]; 0.001 µM) was 1.05 GR. It also gave a GR value ([7]; 0.003162 µM) of 1.04 GR, a GR value ([7]; 0.01 µM) of 0.649 GR and a GR value ([7]; 0.03162 µM) of -0.319 GR. It also gave a GR value ([7]; 0.1 µM) of -0.482 GR, a GR value ([7]; 0.3162 µM) of -0.507 GR and a GR value ([7]; 1 µM) of -0.488 GR. The GR value (LEE011/Ribociclib; 0.001 µM) was 0.88 GR, the GR value (LEE011/Ribociclib; 0.003162 µM) was 0.843 GR and the GR value (LEE011/Ribociclib; 0.01 µM) was 0.691 GR. It also gave a GR value (LEE011/Ribociclib; 0.03162 µM) of 0.847 GR, a GR value (LEE011/Ribociclib; 0.1 µM) of 0.657 GR and a GR value (LEE011/Ribociclib; 0.3162 µM) of 0.674 GR. For the same cell line, the GR value (LEE011/Ribociclib; 1 µM) was 0.569 GR, the GR value (LEE011/Ribociclib; 3.162 µM) was 0.553 GR and the GR value (LEE011/Ribociclib; 10 µM) was 0.415 GR. For the same cell line, the GR value (THZ531; 0.0001 µM) was 1.14 GR, the GR value (THZ531; 0.0003162 µM) was 0.962 GR and the GR value (THZ531; 0.001 µM) was 0.995 GR. The GR value (THZ531; 0.003162 µM) was 0.947 GR, the GR value (THZ531; 0.01 µM) was 0.976 GR and the GR value (THZ531; 0.03162 µM) was 0.76 GR. For the same cell line, the GR value (THZ531; 0.1 µM) was 0.408 GR, the GR value (THZ531; 0.3162 µM) was -0.251 GR and the GR value (THZ531; 1 µM) was -0.587 GR. The GR value ([8]; 0.001 µM) was 0.922 GR, the GR value ([8]; 0.003162 µM) was 0.928 GR and the GR value ([8]; 0.01 µM) was 0.734 GR. The GR value ([8]; 0.03162 µM) was 0.594 GR, the GR value ([8]; 0.1 µM) was 0.387 GR and the GR value ([8]; 0.3162 µM) was 0.361 GR. The GR value ([8]; 1 µM) was 0.283 GR, the GR value ([8]; 3.162 µM) was 0.0357 GR and the GR value ([8]; 10 µM) was -0.543 GR.

Reference: the supplement of paper PMC9663587
